Source: patent US11472788B2, “Benzoimidazoles as selective inhibitors of indoleamine 2,3-dioxygenases” (BEIGENE, LTD., priority 2017, dated 2022)

Assays:
[1] = target: cellular IDO1 in HeLa cells (Homo sapiens (Human), UniProt P14902); test: HeLa Cell-Based IDO1 Kyn (Kynurenine) Production Assay; conditions: IFN-γ induced IDO1, 48 hours incubation, Kyn absorbance at 480 nm
In short: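 Compounds added to HeLa cells together with IFN-γ (100 ng/mL final) and 0.4 mM L-Trp, 48 h at 37 °C. Kynurenine in TCA-deproteinized supernatant measured colorimetrically with 4-(dimethylamino)benzaldehyde at 480 nm; IC50 from four-parameter logistic fit.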

Recombinant IDO1 = Recombinant IDO1 (Homo sapiens (Human), UniProt P14902); test: IDO1 enzymatic assay; assay type: biochemical; conditions: 50 nM IDO1, 1.3 mM D-tryptophan, pH 7.5, read-out: Enzyme assay IC50
Chain of Recombinant IDO1 (P14902 whole entry, species assumed): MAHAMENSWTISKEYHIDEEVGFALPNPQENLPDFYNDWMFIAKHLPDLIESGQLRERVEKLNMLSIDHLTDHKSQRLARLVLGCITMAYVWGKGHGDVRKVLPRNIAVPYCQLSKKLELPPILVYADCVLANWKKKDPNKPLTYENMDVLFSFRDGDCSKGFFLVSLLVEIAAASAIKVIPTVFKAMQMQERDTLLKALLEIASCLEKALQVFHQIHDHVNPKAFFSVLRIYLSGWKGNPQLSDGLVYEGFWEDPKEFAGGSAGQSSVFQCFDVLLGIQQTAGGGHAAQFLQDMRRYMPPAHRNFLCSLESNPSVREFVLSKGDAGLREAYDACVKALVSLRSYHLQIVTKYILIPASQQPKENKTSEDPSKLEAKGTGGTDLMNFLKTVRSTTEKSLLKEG
Method: Recombinant IDO1 was overexpressed and purified from E. coli cells with an N-terminal His tag. IDO1 enzymatic assay was carried out using a methodology similar to described in the literature (J. Biol. Chem. (1980), 255, 1339-1345). The reaction mixture contains 50 nM IDO1, 1.3 mM D-tryptophan, 5 mM L-ascorbic acid, […] methylene Blue, 0.4 mg/mL catalase and compound (or DMSO) in a buffer containing 50 mM potassium phosphate pH 7.5 and 0.1% BSA. After incubation at 24° C. for 1.5 hours, absorbance of the reaction mixture was continuously read at 321 nm to monitor the formation of N′-formylkynurenine by a FULOstar OMEGA plate reader (BMG LABTECH) for 1 hour. The enzymatic activity was determined by measuring the slope of the linear absorbance increase as a function of time. The IC50s are calculated based on remaining enzyme activity in the presence of increasing concentrations of compounds.

Chain of cellular IDO1 in HeLa cells (P14902 whole entry): as the sequence (P14902 whole entry, species assumed) above

| EC50 [1] | IC50 (Recombinant IDO1) | Molecule |
| --- | --- | --- |
| 8 nM | > 10 µM | 4-((1s,4s)-4-((5-chloro-1H-benzo[d]imidazol-2-yl)methyl)cyclohexyl)-6-fluoroquinoline [Example A1b] |
| 51 nM | > 10 µM | Fc1ccc2nccc(C3CCC(Cc4nc5cc(Cl)ccc5[nH]4)CC3)c2c1 (centres unmarked) [Example A1a, 4-(4-((5-chloro-1H-benzo[d]imidazol-2-yl)methyl)cyclohexyl)-6-fluoroquinoline] |
| 241 nM | > 10 µM | Cc1ccc2[nH]c(C[C@H]3CC[C@H](c4ccnc5ccc(F)cc54)CC3)nc2c1 [Example A2a, 6-fluoro-4-((1r,4r)-4-((5-methyl-1H-benzo[d]imidazol-2-yl)methyl)cyclohexyl)quinoline] |
| 53 nM | > 10 µM | Cc1ccc2[nH]c(C[C@H]3CC[C@@H](c4ccnc5ccc(F)cc54)CC3)nc2c1 [Example A2b, 6-fluoro-4-((1s,4s)-4-((5-methyl-1H-benzo[d]imidazol-2-yl)methyl)cyclohexyl)quinoline] |
| 131 nM | > 10 µM | Fc1ccc2nccc([C@H]3CC[C@H](Cc4nc5cc(C6CC6)ccc5[nH]4)CC3)c2c1 [Example A4a, 4-((1r,4r)-4-((5-cyclopropyl-1H-benzo[d]imidazol-2-yl)methyl)cyclohexyl)-6-fluoroquinoline] |
| 13 nM | > 10 µM | Fc1ccc2nccc([C@H]3CC[C@@H](Cc4nc5cc(C6CC6)ccc5[nH]4)CC3)c2c1 [Example A4b, 4-((1s,4s)-4-((5-cyclopropyl-1H-benzo[d]imidazol-2-yl)methyl)cyclohexyl)-6-fluoroquinoline] |
| 141 nM | > 10 µM | Fc1ccc2nccc([C@H]3CC[C@H](Cc4nc5cc(F)c(F)cc5[nH]4)CC3)c2c1 [Example A6a, 4-((1r,4r)-4-((5,6-difluoro-1H-benzo[d]imidazol-2-yl)methyl)cyclohexyl)-6-fluoroquinoline] |
| 14 nM | > 10 µM | Fc1ccc2nccc([C@H]3CC[C@@H](Cc4nc5cc(F)c(F)cc5[nH]4)CC3)c2c1 [Example A6b, 4-((1s,4s)-4-((5,6-difluoro-1H-benzo[d]imidazol-2-yl)methyl)cyclohexyl)-6-fluoroquinoline] |
| 186 nM | > 10 µM | Cc1cc2nc(C[C@H]3CC[C@H](c4ccnc5ccc(F)cc54)CC3)[nH]c2cc1C [Example A9a, 4-((1r,4r)-4-((5,6-dimethyl-1H-benzo[d]imidazol-2-yl)methyl)cyclohexyl)-6-fluoroquinoline] |
| 24 nM | > 10 µM | Cc1cc2nc(C[C@H]3CC[C@@H](c4ccnc5ccc(F)cc54)CC3)[nH]c2cc1C [Example A9b, 4-((1s,4s)-4-((5,6-dimethyl-1H-benzo[d]imidazol-2-yl)methyl)cyclohexyl)-6-fluoroquinoline] |
| 91 nM | > 10 µM | Clc1ccc2[nH]c(C[C@H]3CC[C@H](c4ccnc5ccccc54)CC3)nc2c1 [Example A10a, 4-((1r,4r)-4-((5-chloro-1H-benzo[d]imidazol-2-yl)methyl)cyclohexyl)quinoline] |
| 10 nM | > 10 µM | Clc1ccc2[nH]c(C[C@H]3CC[C@@H](c4ccnc5ccccc54)CC3)nc2c1 [Example A10b, 4-((1s,4s)-4-((5-chloro-1H-benzo[d]imidazol-2-yl)methyl)cyclohexyl)quinoline] |
| 11 nM | > 10 µM | Fc1ccc2nccc(C3CCC(Cc4nc5cc(Cl)c(Cl)cc5[nH]4)CC3)c2c1 (centres unmarked) [Example A12, 4-(4-((5,6-dichloro-1H-benzo[d]imidazol-2-yl)methyl)cyclohexyl)-6-fluoroquinoline] |
| 8.4 nM | > 10 µM | COC(=O)c1ccc2[nH]c(CC3CCC(c4ccnc5ccc(F)cc45)CC3)nc2c1 (centres unmarked) [Example A13, methyl 2-((4-(6-fluoroquinolin-4-yl)cyclohexyl)methyl)-1H-benzo[d]imidazole-5-carboxylate] |
| > 10000 nM | > 10 µM | O=C(O)c1ccc2[nH]c(CC3CCC(c4ccnc5ccc(F)cc45)CC3)nc2c1 (centres unmarked) [Example A14, 2-((4-(6-fluoroquinolin-4-yl)cyclohexyl)methyl)-1H-benzo[d]imidazole-5-carboxylic acid] |
| 50 nM | 5.3 µM | Clc1ccc2[nH]c(CC3CCC(c4ccc5ccccc5n4)CC3)nc2c1 (centres unmarked) [Example A18, 2-(4-((5-chloro-1H-benzo[d]imidazol-2-yl)methyl)cyclohexyl)quinoline] |
| 8.2 nM | > 10 µM | Clc1ccc2[nH]c(CC3CCC(c4cnc5ccccc5c4)CC3)nc2c1 (centres unmarked) [Example A19, 3-(4-((5-chloro-1H-benzo[d]imidazol-2-yl)methyl)cyclohexyl)quinoline] |

| EC50 [1] | IC50 (Recombinant IDO1) | Molecule |
| --- | --- | --- |
| 89 nM | > 10 µM | c1ccc2nc(C3CCC(Cc4nc5ccccc5[nH]4)CC3)ccc2c1 (centres unmarked) [Example A20, 2-(4-((1H-benzo[d]imidazol-2-yl)methyl)cyclohexyl)quinoline] |
| 131 nM | > 10 µM | COc1ccc2[nH]c(CC3CCC(c4ccc5ccccc5n4)CC3)nc2c1 (centres unmarked) [Example A21, 2-(4-((5-methoxy-1H-benzo[d]imidazol-2-yl)methyl)cyclohexyl)quinoline] |
| 148 nM | > 0.01 µM | Clc1ccc2[nH]c(CC3CCC(c4cccc5ncccc45)CC3)nc2c1 (centres unmarked) [Example A22, 5-(4-((5-chloro-1H-benzo[d]imidazol-2-yl)methyl)cyclohexyl)quinoline] |
| 56 nM | > 10 µM | Clc1ccc2[nH]c(C[C@H]3CC[C@H](c4ccc5ncccc5c4)CC3)nc2c1 [Example A23a, 6-((1r,4r)-4-((5-chloro-1H-benzo[d]imidazol-2-yl)methyl)cyclohexyl)quinoline] |
| 24 nM | 3.25 µM | Clc1ccc2[nH]c(C[C@H]3CC[C@@H](c4ccc5ncccc5c4)CC3)nc2c1 [Example A23b, 6-((1s,4s)-4-((5-chloro-1H-benzo[d]imidazol-2-yl)methyl)cyclohexyl)quinoline] |
| 44 nM | > 10 µM | Fc1ccc([C@H]2CC[C@H](Cc3nc4cc(Cl)ccc4[nH]3)CC2)cc1 [Example A30a, 5-chloro-2-(((1r,4r)-4-(4-fluorophenyl)cyclohexyl)methyl)-1H-benzo[d]imidazole] |
| 39 nM | > 10 µM | Fc1ccc([C@H]2CC[C@@H](Cc3nc4cc(Cl)ccc4[nH]3)CC2)cc1 [Example A30b, 5-chloro-2-(((1s,4s)-4-(4-fluorophenyl)cyclohexyl)methyl)-1H-benzo[d]imidazole] |
| 143 nM | 8.1 µM | c1ccc(C2CCC(Cc3nc4ccccc4[nH]3)CC2)cc1 (centres unmarked) [Example A32, 2-((4-phenylcyclohexyl)methyl)-1H-benzo[d]imidazole] |
| > 10000 nM | > 10 µM | FC(F)(F)c1ccc2[nH]c(C[C@H]3CC[C@H](c4ccccc4)CC3)nc2c1 [Example A33a, 2-(((1r,4r)-4-phenylcyclohexyl)methyl)-5-(trifluoromethyl)-1H-benzo[d]imidazole] |
| 8.2 nM | 8.2 µM | FC(F)(F)c1ccc2[nH]c(C[C@H]3CC[C@@H](c4ccccc4)CC3)nc2c1 [Example A33b, 2-(((1s,4s)-4-phenylcyclohexyl)methyl)-5-(trifluoromethyl)-1H-benzo[d]imidazole] |
| 168 nM | 8 µM | Clc1ccc2[nH]c(C[C@H]3CC[C@H](c4ccccc4)CC3)nc2c1 [Example A34a, 5-chloro-2-(((1r,4r)-4-phenylcyclohexyl)methyl)-1H-benzo[d]imidazole] |
| 87 nM | 4.8 µM | Clc1ccc2[nH]c(C[C@H]3CC[C@@H](c4ccccc4)CC3)nc2c1 [Example A34b, 5-chloro-2-(((1s,4s)-4-phenylcyclohexyl)methyl)-1H-benzo[d]imidazole] |
| 107 nM | > 10 µM | Clc1cccc2[nH]c(C[C@H]3CC[C@@H](c4ccccc4)CC3)nc12 [Example A35, 4-chloro-2-(((1s,4s)-4-phenylcyclohexyl)methyl)-1H-benzo[d]imidazole] |
| 223 nM | > 10 µM | Fc1cc2nc(C[C@H]3CC[C@H](c4ccccc4)CC3)[nH]c2cc1Br [Example A37a, 6-bromo-5-fluoro-2-(((1r,4r)-4-phenylcyclohexyl)methyl)-1H-benzo[d]imidazole] |
| 12 nM |  | Fc1ccc2nccc([C@H]3CC[C@@H](CCc4nc5cc(Cl)ccc5[nH]4)CC3)c2c1 [Example C11, 4-((1r,4r)-4-(2-(5-chloro-1H-benzo[d]imidazol-2-yl)ethyl)cyclohexyl)-6-fluoroquinoline] |
| 1090 nM |  | Clc1ccc2nc(C3CC4CC3CC4c3ccccc3)[nH]c2c1 (centres unmarked) [Example D1, 6-chloro-2-(5-phenylbicyclo[2.2.1]heptan-2-yl)-1H-benzo[d]imidazole] |
| 69 nM |  | Clc1ccc2[nH]c(CCC3CC4CC3CC4c3ccccc3)nc2c1 (centres unmarked) [Example D2, 5-chloro-2-(2-(5-phenylbicyclo[2.2.1]heptan-2-yl)ethyl)-1H-benzo[d]imidazole] |
